{"source": "ChEMBL document CHEMBL5532638", "about": "“Current development of 1,2,3-triazole derived potential antimalarial scaffolds: Structure- activity relationship (SAR) and bioactive compounds” (Eur J Med Chem, 2023)", "key": {"[1]": {"tested_on": "Plasmodium falciparum", "assay": "Antiplasmodial activity against CQ-sensitive Plasmodium falciparum 3D7 assessed as parasite growth inhibition", "format": "functional, organism-based"}, "[2]": {"tested_on": "Plasmodium falciparum", "assay": "Antiplasmodial activity against Plasmodium falciparum 3D7 infected in human red blood cells assessed as parasite growth inhibition incubated for 72 hrs by SYBR Green I staining based analysis", "format": "functional, organism-based, Red blood cell", "details": "3D7, Erythrocyte"}, "[3]": {"tested_on": "Plasmodium falciparum", "assay": "Antiplasmodial activity against Plasmodium falciparum infected in O+ RBCs assessed as parasite growth inhibition incubated for 36 to 40 hrs by JSB staining based analysis", "format": "functional, organism-based, RBC", "details": "for pIC50: Plasmodium falciparum, Erythrocyte, read-out: IC50; for IC50: rbc"}, "[4]": {"tested_on": "Plasmodium falciparum", "assay": "Antimalarial activity against Plasmodium falciparum 3D7 assessed as parasite growth inhibition incubated for 42 hrs by [3H]-hypoxanthine incorporation assay", "format": "functional, organism-based"}, "[5]": {"assay": "Cytotoxicity against human PC-3 cells incubated for 72 hrs by MTT assay", "format": "toxicity, cell-based"}, "[6]": {"tested_on": "Plasmodium falciparum", "assay": "Antimalarial activity against CQ-resistant Plasmodium falciparum RKL-9 field isolate at asexual stage assessed as parasite growth inhibition incubated for 22 to 36 hrs by SMI assay", "format": "functional, organism-based"}, "[7]": {"tested_on": "Plasmodium falciparum", "assay": "Antiplasmodial activity against CQ-resistant Plasmodium falciparum K1 infected in human O+ RBCs assessed as parasite growth inhibition incubated for 72 hrs by ELISA", "format": "functional, organism-based", "details": "K1, 72 h"}}, "note": "pIC50: −log10 of the molar value.", "data": [{"smiles": "O=C(Cn1cc(-c2ccccc2)nn1)c1ccccc1", "values": [{"measurement": "pIC50", "setting": "[1]", "result": 5.89}]}, {"smiles": "O=C(N/N=C/c1cn(-c2ccccc2)nn1)c1ccncc1", "values": [{"measurement": "pIC50", "setting": "[2]", "result": 5.55}]}, {"smiles": "O=C(N/N=C/c1cn(-c2ccc(Cl)cc2)nn1)c1ccncc1", "values": [{"measurement": "pIC50", "setting": "[2]", "result": 5.55}]}, {"smiles": "COc1ccc(-n2cc(/C=N/NC(=O)c3ccncc3)nn2)cc1", "values": [{"measurement": "pIC50", "setting": "[2]", "result": 5.55}]}, {"smiles": "COc1ccc(-n2cc(COC(=O)c3ccccc3)nn2)cc1", "values": [{"measurement": "pIC50", "setting": "[2]", "result": 5.55}]}, {"smiles": "CCOCc1cn(-c2ccc(Cl)cc2)nn1", "values": [{"measurement": "pIC50", "setting": "[2]", "result": 5.55}]}, {"smiles": "O=C(OCc1cnn(-c2ccccc2)n1)c1ccccc1", "values": [{"measurement": "pIC50", "setting": "[2]", "result": 5.55}]}, {"smiles": "O=C(OCc1cn(-c2ccccc2)nn1)c1ccccc1", "values": [{"measurement": "pIC50", "setting": "[2]", "result": 5.55}]}, {"smiles": "CCCOCc1cn(-c2cc(Cl)ccc2Cl)nn1", "values": [{"measurement": "pIC50", "setting": "[2]", "result": 5.55}]}, {"smiles": "CCCOCc1cn(-c2cc(Cl)cc(Cl)c2)nn1", "values": [{"measurement": "pIC50", "setting": "[2]", "result": 5.55}]}, {"smiles": "CCOCc1cn(-c2cc(Cl)cc(Cl)c2)nn1", "values": [{"measurement": "pIC50", "setting": "[2]", "result": 5.55}]}, {"smiles": "O=C(Cn1cc(CSc2ccc(Br)cc2)nn1)OCc1ccc(Cl)cc1", "values": [{"measurement": "pIC50", "setting": "[3]", "result": 6.69}]}, {"smiles": "O=C(Cn1cc(CSc2ccc(Cl)cc2)nn1)OCc1ccc(Cl)cc1", "values": [{"measurement": "pIC50", "setting": "[3]", "result": 6.68}]}, {"smiles": "COc1ccc2cc3[n+](cc2c1OCc1cn(-c2ccc(S(=O)(=O)N4CCOCC4)cc2)nn1)CCc1cc2c(cc1-3)OCO2.[Cl-]", "values": [{"measurement": "IC50", "setting": "[4]", "result": 0.1, "unit": "µg/mL"}, {"measurement": "CC50 at 72 h", "setting": "[5]", "result": "> 200", "unit": "µg/mL"}]}, {"smiles": "COc1ccc(NS(=O)(=O)c2ccc(-n3cc(COc4c(OC)ccc5cc6[n+](cc45)CCc4cc5c(cc4-6)OCO5)nn3)cc2)cc1.[Cl-]", "values": [{"measurement": "IC50", "setting": "[4]", "result": 0.5, "unit": "µg/mL"}, {"measurement": "CC50 at 72 h", "setting": "[5]", "result": "> 200", "unit": "µg/mL"}]}, {"smiles": "COc1ccc2cc3[n+](cc2c1OCc1cn(-c2ccc(S(=O)(=O)Nc4ccc(F)cc4)cc2)nn1)CCc1cc2c(cc1-3)OCO2.[Cl-]", "values": [{"measurement": "IC50", "setting": "[4]", "result": 0.1, "unit": "µg/mL"}, {"measurement": "CC50 at 72 h", "setting": "[5]", "result": "> 200", "unit": "µg/mL"}]}, {"smiles": "COc1ccc2cc3[n+](cc2c1OCc1cn(-c2ccc(S(=O)(=O)Nc4ccc(Cl)cc4)cc2)nn1)CCc1cc2c(cc1-3)OCO2", "values": [{"measurement": "CC50 at 72 h", "setting": "[5]", "result": "> 200", "unit": "µg/mL"}]}, {"smiles": "COc1ccc2cc3[n+](cc2c1OCc1cn(-c2ccc(S(=O)(=O)N4CCN(C)CC4)cc2)nn1)CCc1cc2c(cc1-3)OCO2.[Cl-]", "values": [{"measurement": "IC50", "setting": "[4]", "result": 0.1, "unit": "µg/mL"}, {"measurement": "CC50 at 72 h", "setting": "[5]", "result": "> 200", "unit": "µg/mL"}]}, {"smiles": "COc1ccc2cc3[n+](cc2c1OCc1cn(-c2ccc(S(=O)(=O)N4CCCCC4)cc2)nn1)CCc1cc2c(cc1-3)OCO2.[Cl-]", "values": [{"measurement": "IC50", "setting": "[4]", "result": 0.1, "unit": "µg/mL"}, {"measurement": "CC50 at 72 h", "setting": "[5]", "result": "> 200", "unit": "µg/mL"}]}, {"smiles": "COc1ccc2cc3[n+](cc2c1OCc1cn(-c2ccc(S(N)(=O)=O)cc2)nn1)CCc1cc2c(cc1-3)OCO2.[Cl-]", "values": [{"measurement": "IC50", "setting": "[4]", "result": 0.1, "unit": "µg/mL"}, {"measurement": "CC50 at 72 h", "setting": "[5]", "result": "> 200", "unit": "µg/mL"}]}, {"smiles": "COc1ccc2cc3[n+](cc2c1OCc1cn(-c2ccc(S(=O)(=O)Nc4ccccc4)cc2)nn1)CCc1cc2c(cc1-3)OCO2.[Cl-]", "values": [{"measurement": "IC50", "setting": "[4]", "result": 0.2, "unit": "µg/mL"}, {"measurement": "CC50 at 72 h", "setting": "[5]", "result": "> 200", "unit": "µg/mL"}]}, {"smiles": "COc1ccc2cc3[n+](cc2c1OCc1cn(-c2ccc(S(=O)(=O)Nc4ccc(Br)cc4)cc2)nn1)CCc1cc2c(cc1-3)OCO2.[Cl-]", "values": [{"measurement": "IC50", "setting": "[4]", "result": 0.1, "unit": "µg/mL"}, {"measurement": "CC50 at 72 h", "setting": "[5]", "result": "> 200", "unit": "µg/mL"}]}, {"smiles": "O=C(Cn1cc(COc2ccc(Cl)cc2)nn1)NCCNc1ccnc2cc(Cl)ccc12", "values": [{"measurement": "pIC50", "setting": "[6]", "result": "> 7.00"}]}, {"smiles": "O=C(Cn1cc(COc2ccccc2)nn1)NCCCNc1ccnc2cc(Cl)ccc12", "values": [{"measurement": "pIC50", "setting": "[6]", "result": 7.12}]}, {"smiles": "O=C(Cn1cc(CSc2ccc(Br)cc2)nn1)OCc1ccc([N+](=O)[O-])cc1", "values": [{"measurement": "pIC50", "setting": "[3]", "result": 6.74}]}, {"smiles": "Clc1ccc(N/N=C/c2cnn(-c3ccccc3)n2)cc1", "values": [{"measurement": "pIC50", "setting": "[2]", "result": 5.55}]}, {"smiles": "Cc1ccccc1COc1ccc(-n2cc(COc3cc(=O)oc4ccccc34)nn2)cc1", "values": [{"measurement": "IC50", "setting": "[3]", "result": 0.53, "unit": "microg/cm3"}]}, {"smiles": "O=c1ccc2ccc(OCc3cn(-c4ccc(OCc5ccc(F)cc5)cc4)nn3)cc2o1", "values": [{"measurement": "IC50", "setting": "[3]", "result": 0.49, "unit": "microg/cm3"}]}, {"smiles": "COc1ccc2cc3[n+](cc2c1OCc1cn(-c2ccc(S(=O)(=O)Nc4ccc([N+](=O)[O-])cc4)cc2)nn1)CCc1cc2c(cc1-3)OCO2.Cl", "values": [{"measurement": "IC50", "setting": "[4]", "result": 0.1, "unit": "µg/mL"}, {"measurement": "CC50 at 72 h", "setting": "[5]", "result": "> 200", "unit": "µg/mL"}]}, {"smiles": "COc1ccc2cc3[n+](cc2c1OCc1cn(-c2ccc(S(=O)(=O)N4CCN(c5ccccn5)CC4)cc2)nn1)CCc1cc2c(cc1-3)OCO2.[Cl-]", "values": [{"measurement": "IC50", "setting": "[4]", "result": 0.1, "unit": "µg/mL"}, {"measurement": "CC50 at 72 h", "setting": "[5]", "result": "> 200", "unit": "µg/mL"}]}, {"smiles": "Clc1ccc(N/N=C/c2cn(-c3ccc(Cl)cc3)nn2)cc1", "values": [{"measurement": "pIC50", "setting": "[2]", "result": 5.55}]}, {"smiles": "O=C1C(Oc2ccccc2)C(c2ccc([N+](=O)[O-])cc2)N1c1ccc(OCc2cn(Cc3ccccc3)nn2)cc1", "note": "(stereo unspecified)", "values": [{"measurement": "pIC50", "setting": "[7]", "result": 6.07}]}, {"smiles": "O=c1ccc2ccc(OCc3cn(-c4ccc(OCc5ccc(Br)cc5)cc4)nn3)cc2o1", "values": [{"measurement": "IC50", "setting": "[3]", "result": 0.54, "unit": "microg/cm3"}]}, {"smiles": "C=CCn1cc(COc2ccc(N3C(=O)C(Oc4ccccc4)C3c3cccc(OC)c3)cc2)nn1", "note": "(stereo unspecified)", "values": [{"measurement": "pIC50", "setting": "[7]", "result": 6.07}]}, {"smiles": "Clc1cc(Cl)cc(-n2cc(/C=N/Nc3ccc(Br)cc3)nn2)c1", "values": [{"measurement": "pIC50", "setting": "[2]", "result": 5.55}]}, {"smiles": "CCOC(=O)Cn1cc(COc2ccc(C3C(Oc4ccccc4)C(=O)N3c3ccc(OCc4cn(CC(=O)OCC)nn4)cc3)cc2)nn1", "note": "(stereo unspecified)", "values": [{"measurement": "pIC50", "setting": "[7]", "result": 6.07}]}, {"smiles": "O=C1C(Oc2ccccc2)C(c2ccccc2)N1c1ccc(OCc2cn(Cc3ccccc3)nn2)cc1", "note": "(stereo unspecified)", "values": [{"measurement": "pIC50", "setting": "[7]", "result": 6.07}]}, {"smiles": "Cc1ccc(COc2ccc(-n3cc(COc4ccc5ccc(=O)oc5c4)nn3)cc2)cc1", "values": [{"measurement": "IC50", "setting": "[3]", "result": 0.38, "unit": "microg/cm3"}]}, {"smiles": "C=CCn1cc(COc2ccc(N3C(=O)C(Oc4ccccc4)C3c3ccccc3)cc2)nn1", "note": "(stereo unspecified)", "values": [{"measurement": "pIC50", "setting": "[7]", "result": 6.07}]}, {"smiles": "Cc1ccc(COC(=O)Cn2cc(CSc3ccc(C)cc3)nn2)cc1", "values": [{"measurement": "pIC50", "setting": "[3]", "result": 6.69}]}, {"smiles": "O=C(Cn1cc(CSc2ccc3ccccc3c2)nn1)OCc1ccc([N+](=O)[O-])cc1", "values": [{"measurement": "pIC50", "setting": "[3]", "result": 6.68}]}]}
